Activity calls are given as the source filed them.
Legend:
HEK293 [1] = assay: cells; conditions: Homo sapiens
[2] = growth suppression of PTEN-null colon cells, dose response, cell-based, HCT116 PTEN knockout (AID 1047); format: functional;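 further: HCT116 colon tumor cells with PTEN knocked out; cells exposed to compound for 60 hours before readout; potency for loss of cell viability measured by luminescence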
HEK293 [3] = assay: cells; conditions: Homo sapiens; remark: listed apart in the source
[4] = growth suppression of beta-catenin-knockout colon cells, dose response, cell-based, HCT116, human colon tumor (AID 1045); format: functional;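 further: HCT116 colon tumor cells with beta catenin knocked out; cells exposed to compound for 60 hours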
HEK293 [5] = assay: SAR analysis of compounds that are cytotoxic to HEK293 - Set 3. [Related pubchem assays (depositor defined):AID1575, AID1578, AID1848, AID1849, AID2001, AID2333, AID2334, AID2335, AID2337, AID2469]; format: functional, cell-based; conditions: Homo sapiens
HEK293 [6] = assay: SAR analysis of compounds that are cytotoxic to HEK293 - Set 2. [Related pubchem assays (depositor defined):AID1575, AID1578, AID1849, AID2001, AID2333, AID2334, AID2335, AID2337, AID2800]; format: functional, cell-based; conditions: Homo sapiens
[7] = molecular target: T1, Nucleotide-binding oligomerization domain-containing protein 2 (Homo sapiens, UniProt Q9HC29); assay: NOD2 inhibitors, SAR follow-up, set 2 (AID 2475); format: functional
T1 sequence (Q9HC29 whole entry, the tested form may be a part): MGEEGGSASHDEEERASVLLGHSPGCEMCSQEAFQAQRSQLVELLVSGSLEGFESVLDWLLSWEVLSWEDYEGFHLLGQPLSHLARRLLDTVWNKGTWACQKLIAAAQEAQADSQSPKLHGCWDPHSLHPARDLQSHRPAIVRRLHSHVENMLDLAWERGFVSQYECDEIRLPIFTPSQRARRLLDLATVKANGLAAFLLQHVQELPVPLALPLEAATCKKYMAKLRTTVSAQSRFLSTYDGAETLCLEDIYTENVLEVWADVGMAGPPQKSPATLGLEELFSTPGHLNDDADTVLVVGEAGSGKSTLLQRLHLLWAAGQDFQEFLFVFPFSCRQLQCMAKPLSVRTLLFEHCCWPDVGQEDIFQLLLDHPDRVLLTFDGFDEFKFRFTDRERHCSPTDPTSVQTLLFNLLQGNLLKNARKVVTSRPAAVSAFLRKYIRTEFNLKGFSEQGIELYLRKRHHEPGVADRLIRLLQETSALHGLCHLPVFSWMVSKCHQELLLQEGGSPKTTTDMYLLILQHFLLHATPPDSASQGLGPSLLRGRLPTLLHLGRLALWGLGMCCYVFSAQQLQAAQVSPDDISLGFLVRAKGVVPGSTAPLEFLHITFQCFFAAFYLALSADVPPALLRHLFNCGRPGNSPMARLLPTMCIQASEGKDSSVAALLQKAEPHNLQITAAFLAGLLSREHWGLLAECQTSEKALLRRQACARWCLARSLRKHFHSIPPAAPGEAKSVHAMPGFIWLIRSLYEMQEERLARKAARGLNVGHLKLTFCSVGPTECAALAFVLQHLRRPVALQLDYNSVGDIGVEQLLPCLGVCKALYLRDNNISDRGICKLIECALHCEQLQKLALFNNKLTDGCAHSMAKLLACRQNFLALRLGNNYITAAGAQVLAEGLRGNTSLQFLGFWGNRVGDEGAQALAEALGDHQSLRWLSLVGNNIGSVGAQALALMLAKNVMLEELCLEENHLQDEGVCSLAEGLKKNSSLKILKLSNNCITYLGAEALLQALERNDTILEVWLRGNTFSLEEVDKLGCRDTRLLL

[8] = molecular target: T2, Nucleotide-binding oligomerization domain-containing protein 1 (Homo sapiens, UniProt Q9Y239); assay: SAR analysis of compounds that inhibit NOD1 - Set 3. [Related pubchem assays (depositor defined):AID1566, AID1575, AID1578, AID1849, AID1852, AID2333, AID2335, AID2466]; format: functional
T2 sequence (Q9Y239 whole entry): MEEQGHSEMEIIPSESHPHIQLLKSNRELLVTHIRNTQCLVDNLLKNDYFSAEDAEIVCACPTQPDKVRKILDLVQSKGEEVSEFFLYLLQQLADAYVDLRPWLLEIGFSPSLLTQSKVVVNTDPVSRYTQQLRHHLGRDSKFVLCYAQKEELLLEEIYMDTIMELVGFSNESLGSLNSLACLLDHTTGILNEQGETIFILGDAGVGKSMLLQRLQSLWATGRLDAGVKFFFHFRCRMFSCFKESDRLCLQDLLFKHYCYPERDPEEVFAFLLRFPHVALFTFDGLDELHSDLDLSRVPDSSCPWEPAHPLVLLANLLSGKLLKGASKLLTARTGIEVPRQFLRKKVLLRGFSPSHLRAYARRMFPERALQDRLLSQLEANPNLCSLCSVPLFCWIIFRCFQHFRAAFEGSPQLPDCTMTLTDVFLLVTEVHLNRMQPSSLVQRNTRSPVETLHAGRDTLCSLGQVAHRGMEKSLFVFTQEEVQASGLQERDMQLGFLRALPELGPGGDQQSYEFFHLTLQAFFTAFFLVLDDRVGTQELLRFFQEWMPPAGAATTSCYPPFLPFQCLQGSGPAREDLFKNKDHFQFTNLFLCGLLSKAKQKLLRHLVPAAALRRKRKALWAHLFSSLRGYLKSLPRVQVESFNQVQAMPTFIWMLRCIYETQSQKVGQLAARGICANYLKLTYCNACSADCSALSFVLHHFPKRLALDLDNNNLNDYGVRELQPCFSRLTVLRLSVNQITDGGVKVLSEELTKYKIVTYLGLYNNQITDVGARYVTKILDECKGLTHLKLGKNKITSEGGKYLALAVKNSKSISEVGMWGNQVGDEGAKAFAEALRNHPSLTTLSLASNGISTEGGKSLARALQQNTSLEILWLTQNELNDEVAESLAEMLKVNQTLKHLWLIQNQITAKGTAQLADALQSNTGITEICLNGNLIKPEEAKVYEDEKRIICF

Interleukin-8 [9] = molecular target: T3, Interleukin-8 (Homo sapiens, UniProt P10145); assay: SAR analysis of GM-Tri-DAP induced IL-8 secretion in MCF-7/NOD1 cells - Set 2. [Related pubchem assays (depositor defined):AID1575, AID1578, AID2333]; format: functional, cell-based
T3 sequence (P10145 whole entry): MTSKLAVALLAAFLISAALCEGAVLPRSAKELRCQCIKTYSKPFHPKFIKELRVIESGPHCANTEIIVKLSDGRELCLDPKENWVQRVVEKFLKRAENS

Tumor necrosis factor = Tumor necrosis factor (Homo sapiens, UniProt P01375); assay: TNFa-triggered NF-kB activation inhibitors, SAR follow-up, cell-based, set 3 (AID 2801); format: functional
Chain of Tumor necrosis factor (P01375 whole entry, the tested form may be a part): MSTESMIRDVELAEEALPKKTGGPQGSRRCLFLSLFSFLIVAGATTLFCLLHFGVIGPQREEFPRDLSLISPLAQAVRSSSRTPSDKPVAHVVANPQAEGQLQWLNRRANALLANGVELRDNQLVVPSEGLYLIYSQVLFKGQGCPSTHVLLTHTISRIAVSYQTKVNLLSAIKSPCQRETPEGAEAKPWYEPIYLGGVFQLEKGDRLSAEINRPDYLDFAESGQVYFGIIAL

[10] = molecular target: T1, Nucleotide-binding oligomerization domain-containing protein 2; assay: NOD2 signaling inhibitors, analog potency, SAR follow-up, cell-based, set 3 (AID 2799); format: functional
Interleukin-8 [11] = molecular target: T3, Interleukin-8; assay: SAR analysis of Tumor necrosis factor alpha (TNF-alpha) induced IL-8 secretion in MCF-7/NOD1 cells - Set 2. [Related pubchem assays (depositor defined):AID1575, AID2250, AID2260]; format: functional, cell-based
[12] = molecular target: T2, Nucleotide-binding oligomerization domain-containing protein 1; assay: SAR analysis of compounds that inhibit NOD1 - Set 2. [Related pubchem assays (depositor defined):AID1566, AID1575, AID1578, AID1849, AID1852, AID2333, AID2335, AID2798]; format: functional
[13] = molecular target: T2, Nucleotide-binding oligomerization domain-containing protein 1; assay: SAR analysis of NF-kappaB dependent luciferase using DAP as an inducer - Set 2. [Related pubchem assays (depositor defined):AID1566, AID1575, AID1578, AID1579, AID1849, AID1852, AID2264]; format: functional
[14] = reduction of Shn3 3'UTR firefly luciferase signal, dose response, Schnurri-3 inhibitor project, cell-based, Clone20 osteoblasts, cherry-pick, set 2 (AID 720490); format: functional;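 further: actives lower the luminescence signal as inhibitors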
[15] = molecular target: Beta-2 adrenergic receptor (Homo sapiens, UniProt P07550); assay: beta2AR agonists driving receptor internalization, dose response, cell-based, FAP fluorogen, flow cytometry, cherry pick 1 (AID 588763); format: functional
Chain of Beta-2 adrenergic receptor (P07550 whole entry): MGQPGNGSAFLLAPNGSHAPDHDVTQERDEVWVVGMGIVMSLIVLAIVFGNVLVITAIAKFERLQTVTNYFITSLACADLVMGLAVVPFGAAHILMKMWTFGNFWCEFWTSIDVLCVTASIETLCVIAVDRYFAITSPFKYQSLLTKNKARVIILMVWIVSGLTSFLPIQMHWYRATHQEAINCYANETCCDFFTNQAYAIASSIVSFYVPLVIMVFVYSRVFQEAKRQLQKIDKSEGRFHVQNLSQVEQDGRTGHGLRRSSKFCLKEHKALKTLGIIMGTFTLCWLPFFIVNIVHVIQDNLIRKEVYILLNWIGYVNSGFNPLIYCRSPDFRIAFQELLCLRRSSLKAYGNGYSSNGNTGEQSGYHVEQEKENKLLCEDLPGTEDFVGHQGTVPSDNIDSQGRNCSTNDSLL

[16] = control 3'UTR Renilla luciferase suppression, dose response, counter-screen for Shn3 inhibitor project, cell-based, Clone20-Shn3RL, cherry-picked (AID 624133); format: functional
[17] = Shn3 3'UTR reporter inhibitors, dose response, cell-based, Clone20 osteoblasts, firefly luciferase, cherry-picked (AID 624132); format: functional;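 further: firefly luciferase luminescence from reporter carrying the Shn3 3'UTR in osteoblasts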
[18] = insulin promoter down-regulators in MIN6 cells, imaging, high-content screening, mouse beta cells (AID 1628); format: functional
[19] = THP-1 cell cytotoxicity, dose response, cytotoxicity control for Vif-APOBEC3G degradation inhibitor project, THP-1 cells (AID 1117359); format: functional; conditions: Human immunodeficiency virus 1, THP-1
[20] = cytotoxicity toward NIH3T3 fibroblasts, dose response, counter-screen, cell-based, ATP luminescence, mouse fibroblasts (AID 2010); format: functional;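 further: cells exposed to compound for about 90 hours before reading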
Bcl-2-related protein A1 = molecular target: T4, Bcl-2-related protein A1 (Mus musculus, UniProt Q07440); format: functional;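 further: confirmatory dose–response counterscreen on Bfl-1, used to check hits from a UBC13 polyubiquitin inhibitor campaign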
T4 sequence (Q07440 whole entry): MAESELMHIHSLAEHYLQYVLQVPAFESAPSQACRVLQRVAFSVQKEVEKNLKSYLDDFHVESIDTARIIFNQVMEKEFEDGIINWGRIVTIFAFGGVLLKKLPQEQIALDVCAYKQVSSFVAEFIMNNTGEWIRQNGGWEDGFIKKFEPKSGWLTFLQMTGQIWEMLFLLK

INS1 = assay: beta cell apoptosis inhibitors, cytokine rescue, dose response, luminescence, retest (AID 449756); format: functional, cell-based; conditions: Rattus norvegicus;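 further: cell death triggered by IL-1 beta plus TNF-alpha plus IFN-gamma mixture; protective hits raise ATP signal compared with cytokine alone wells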
[21] = molecular target: T5, Ubiquitin-conjugating enzyme E2 N (Homo sapiens, UniProt P61088); format: functional
T5 sequence (P61088 whole entry): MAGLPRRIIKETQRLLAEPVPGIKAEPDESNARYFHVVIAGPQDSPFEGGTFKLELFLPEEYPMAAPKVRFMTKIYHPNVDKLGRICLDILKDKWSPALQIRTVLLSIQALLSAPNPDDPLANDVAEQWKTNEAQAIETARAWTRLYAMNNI

[22] = inhibitors of intracellular T. cruzi replication, confirmation, NIH3T3 host cells, beta-gal luminescence (AID 2044); format: functional, cell-based;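 further: intracellular parasites grown in NIH/3T3 mouse fibroblasts as host cells; luminescent beta-galactosidase reporter signal from transgenic T. cruzi replicating inside host cells; inhibitors lower the luminescence signal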
[23] = cytotoxicity in MIN6 insulinoma cells, dose response, cytotoxicity control, cell-based, mouse insulinoma (AID 2122); format: functional;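 further: confirmatory high-throughput counterscreen run to flag cytotoxic compounds; mouse MIN-6 beta cells carrying an insulin promoter eGFP reporter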
[24] = molecular target: T5, Ubiquitin-conjugating enzyme E2 N; format: functional; remark: listed apart in the source
Cytochrome P450 2C9 = Cytochrome P450 2C9 (Homo sapiens, UniProt P11712)
Chain of Cytochrome P450 2C9 (P11712 whole entry): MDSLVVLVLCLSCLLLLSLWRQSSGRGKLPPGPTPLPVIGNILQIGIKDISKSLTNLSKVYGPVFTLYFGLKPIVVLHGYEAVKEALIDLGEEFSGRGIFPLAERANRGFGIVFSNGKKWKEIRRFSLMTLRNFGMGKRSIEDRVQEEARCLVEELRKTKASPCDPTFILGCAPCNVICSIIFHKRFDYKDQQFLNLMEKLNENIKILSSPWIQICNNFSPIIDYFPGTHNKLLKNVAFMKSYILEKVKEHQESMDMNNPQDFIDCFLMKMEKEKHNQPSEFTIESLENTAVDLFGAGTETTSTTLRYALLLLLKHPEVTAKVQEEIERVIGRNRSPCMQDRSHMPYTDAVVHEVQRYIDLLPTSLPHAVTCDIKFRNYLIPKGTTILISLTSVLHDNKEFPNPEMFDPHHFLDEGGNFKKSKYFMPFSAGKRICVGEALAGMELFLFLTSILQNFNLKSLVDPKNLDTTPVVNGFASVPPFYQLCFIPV

Cytochrome P450 3A4 = Cytochrome P450 3A4 (Homo sapiens, UniProt P08684);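 further: CYP3A4 tested as one member of a cytochrome P450 panel screen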
Chain of Cytochrome P450 3A4 (P08684 whole entry): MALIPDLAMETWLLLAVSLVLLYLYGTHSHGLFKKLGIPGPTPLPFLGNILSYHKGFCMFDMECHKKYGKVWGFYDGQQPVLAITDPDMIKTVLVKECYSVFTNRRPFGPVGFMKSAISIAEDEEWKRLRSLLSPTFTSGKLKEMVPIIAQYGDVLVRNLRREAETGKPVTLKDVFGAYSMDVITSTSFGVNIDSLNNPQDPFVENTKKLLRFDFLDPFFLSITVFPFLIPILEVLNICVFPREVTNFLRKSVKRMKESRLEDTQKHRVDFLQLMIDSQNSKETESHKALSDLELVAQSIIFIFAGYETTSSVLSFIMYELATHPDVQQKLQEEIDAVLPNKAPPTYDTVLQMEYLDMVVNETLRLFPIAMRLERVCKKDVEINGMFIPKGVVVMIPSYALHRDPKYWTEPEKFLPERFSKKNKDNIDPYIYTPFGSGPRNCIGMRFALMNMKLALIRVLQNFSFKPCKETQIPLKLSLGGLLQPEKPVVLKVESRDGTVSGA

Cytochrome P450 1A2 = molecular target: T6, Cytochrome P450 1A2 (Homo sapiens, UniProt P05177);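 further: PubChem cytochrome P450 panel assay, CYP1A2 panel member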
T6 sequence (P05177 whole entry): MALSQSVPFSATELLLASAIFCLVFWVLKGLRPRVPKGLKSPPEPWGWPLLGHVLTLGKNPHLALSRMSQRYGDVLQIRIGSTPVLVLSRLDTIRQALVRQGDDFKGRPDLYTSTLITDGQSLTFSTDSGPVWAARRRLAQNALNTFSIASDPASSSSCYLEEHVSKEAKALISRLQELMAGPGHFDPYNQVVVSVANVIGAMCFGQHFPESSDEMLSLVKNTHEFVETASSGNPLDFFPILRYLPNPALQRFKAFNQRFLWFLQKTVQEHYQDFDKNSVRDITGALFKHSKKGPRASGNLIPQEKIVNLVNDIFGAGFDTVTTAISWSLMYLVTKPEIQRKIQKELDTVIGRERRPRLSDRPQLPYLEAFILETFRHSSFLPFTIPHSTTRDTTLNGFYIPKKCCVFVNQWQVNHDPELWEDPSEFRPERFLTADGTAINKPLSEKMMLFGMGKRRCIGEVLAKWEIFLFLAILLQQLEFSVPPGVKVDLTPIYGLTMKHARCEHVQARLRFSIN

SUMO E1/E2 = SUMO E1/E2 (Homo sapiens, UniProt P63279+Q9UBE0+Q9UBT2); assay: SAR analysis of SUMOylation using HTRF in an in-Vitro dose response assay. [Related pubchem assays (depositor defined):AID2006, AID2011, AID2018, AID2069, AID2658]; format: functional
Chain of SUMO E1/E2 (Q9UBE0 whole entry): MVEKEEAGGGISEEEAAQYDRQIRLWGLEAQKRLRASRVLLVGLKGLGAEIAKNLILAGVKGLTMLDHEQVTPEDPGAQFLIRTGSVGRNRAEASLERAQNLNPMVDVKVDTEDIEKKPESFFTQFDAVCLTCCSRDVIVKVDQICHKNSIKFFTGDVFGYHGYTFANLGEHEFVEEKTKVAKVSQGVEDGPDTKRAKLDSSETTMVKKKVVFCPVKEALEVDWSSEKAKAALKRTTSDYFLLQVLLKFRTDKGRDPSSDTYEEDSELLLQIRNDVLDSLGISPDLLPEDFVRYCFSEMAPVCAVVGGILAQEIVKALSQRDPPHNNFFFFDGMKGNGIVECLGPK
Chain of SUMO E1/E2 (Q9UBT2 whole entry): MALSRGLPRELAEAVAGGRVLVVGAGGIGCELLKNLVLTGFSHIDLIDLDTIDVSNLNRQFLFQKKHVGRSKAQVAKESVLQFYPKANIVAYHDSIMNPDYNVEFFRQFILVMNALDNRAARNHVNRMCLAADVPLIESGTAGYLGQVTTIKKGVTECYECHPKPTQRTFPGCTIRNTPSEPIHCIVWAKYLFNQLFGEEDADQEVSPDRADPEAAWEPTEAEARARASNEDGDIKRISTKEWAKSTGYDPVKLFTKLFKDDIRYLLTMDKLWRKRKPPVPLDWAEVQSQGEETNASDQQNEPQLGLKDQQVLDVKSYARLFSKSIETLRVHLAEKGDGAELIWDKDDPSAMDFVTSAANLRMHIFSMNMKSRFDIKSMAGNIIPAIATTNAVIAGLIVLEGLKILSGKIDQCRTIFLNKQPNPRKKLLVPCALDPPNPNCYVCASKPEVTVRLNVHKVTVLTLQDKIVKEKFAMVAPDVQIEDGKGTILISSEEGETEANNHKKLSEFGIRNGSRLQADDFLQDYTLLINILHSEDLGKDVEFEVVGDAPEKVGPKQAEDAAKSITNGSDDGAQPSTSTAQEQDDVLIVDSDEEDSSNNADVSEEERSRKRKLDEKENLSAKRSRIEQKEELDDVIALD
Chain of SUMO E1/E2 (P63279 whole entry): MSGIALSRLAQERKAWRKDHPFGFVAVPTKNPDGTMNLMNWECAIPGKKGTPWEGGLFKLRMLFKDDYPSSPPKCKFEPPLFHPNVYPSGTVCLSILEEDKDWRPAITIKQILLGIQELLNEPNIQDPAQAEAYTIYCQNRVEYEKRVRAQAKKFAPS

[25] = molecular target: Heat shock protein HSP 90-alpha (Homo sapiens, UniProt P07900); format: functional, organism-based
Vero = Vero cell cytotoxicity, cytotoxicity control for flavivirus capping enzyme inhibitors (AID 588742); format: functional; conditions: Chlorocebus sabaeus
Genome polyprotein = Genome polyprotein (dengue virus type 2, UniProt P29990); assay: Dengue-2 NS5 methyltransferase inhibitors, primary screen, biochemical, confirmation dose response (AID 588689); format: functional
Chain of Genome polyprotein (P29990 2492-3391 limits assumed): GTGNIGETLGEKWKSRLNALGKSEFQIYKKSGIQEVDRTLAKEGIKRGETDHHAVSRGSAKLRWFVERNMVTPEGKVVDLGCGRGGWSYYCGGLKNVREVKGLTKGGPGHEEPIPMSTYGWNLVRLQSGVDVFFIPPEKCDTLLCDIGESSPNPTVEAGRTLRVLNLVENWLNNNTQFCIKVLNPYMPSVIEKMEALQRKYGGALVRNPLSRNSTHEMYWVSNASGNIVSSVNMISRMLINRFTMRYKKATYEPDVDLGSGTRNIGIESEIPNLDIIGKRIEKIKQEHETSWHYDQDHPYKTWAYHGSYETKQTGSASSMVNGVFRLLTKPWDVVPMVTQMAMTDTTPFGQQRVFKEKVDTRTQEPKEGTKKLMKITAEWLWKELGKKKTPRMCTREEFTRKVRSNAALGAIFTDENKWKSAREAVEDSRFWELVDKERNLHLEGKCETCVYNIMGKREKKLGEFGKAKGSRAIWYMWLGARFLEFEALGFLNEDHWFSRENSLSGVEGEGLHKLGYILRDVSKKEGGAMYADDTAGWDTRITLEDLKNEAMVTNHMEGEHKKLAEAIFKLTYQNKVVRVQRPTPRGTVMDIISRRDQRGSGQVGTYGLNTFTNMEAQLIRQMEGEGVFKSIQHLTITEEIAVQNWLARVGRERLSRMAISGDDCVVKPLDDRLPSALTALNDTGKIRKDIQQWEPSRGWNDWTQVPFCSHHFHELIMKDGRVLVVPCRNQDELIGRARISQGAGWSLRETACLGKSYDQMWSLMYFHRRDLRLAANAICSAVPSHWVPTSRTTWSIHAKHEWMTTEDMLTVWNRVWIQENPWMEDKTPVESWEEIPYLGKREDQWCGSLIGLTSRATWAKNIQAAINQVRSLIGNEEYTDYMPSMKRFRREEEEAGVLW

COc1ccc(-c2[nH]c(-c3ccc(Cl)cc3)nc2SCC(=O)Nc2nccs2)cc1
EC50 (HEK293 [1]): > 59.7 µM (inactive) | EC50 [2]: 15.9 µM (active) | EC50 (HEK293 [3]): > 59.7 µM (inactive) | EC50 [4]: 15.3 µM (active)

C/C=C/Cn1c(SCc2ccc(Cl)cc2)nc2c1c(=O)[nH]c(=O)n2C
IC50 (HEK293 [5]): > 20 µM (inactive) | IC50 (HEK293 [6]): > 20 µM (inactive) | IC50 [7]: 13.7 µM (active) | IC50 [8]: > 20 µM (inactive) | IC50 (Interleukin-8 [9]): > 25 µM (inactive) | IC50 (Tumor necrosis factor): > 20 µM (inactive) | IC50 [10]: > 20 µM (inactive) | IC50 (Interleukin-8 [11]): > 25 µM (inactive) | IC50 [12]: 14.7 µM (active) | IC50 [13]: > 25 µM (inactive)

Cc1ccc(-c2nc3ncccc3o2)cc1NC(=O)c1sc2ccccc2c1Cl
AC50 [14]: 11.8 µM (active) | EC50 [15]: 0.722 µM (active) | AC50 [16]: 36.5 µM (active) | AC50 [17]: 5.87 µM (active)

COc1cc(/C=N/N=C(N)N)ccc1OCc1ccc(Cl)cc1
IC50 [18]: 1.03 µM (active) | CC50 [19]: 5.63 µM (active) | EC50 [20]: > 30 µM (not active) | IC50 (Bcl-2-related protein A1): > 20 µM (inactive) | AC50 (INS1): 2.95 µM (active) | IC50 [21]: 12.9 µM (active) | EC50 [22]: 0.397 µM (active) | IC50 [23]: 0.916 µM (active) | IC50 [24]: 13.2 µM (active)

c1ccc(C(c2ccccc2)N2CC3(CCNCC3)C2)cc1
AC50 (Cytochrome P450 2C9): 39.8 µM (inconclusive) | AC50 (Cytochrome P450 3A4): inconclusive | AC50 (Cytochrome P450 1A2): 15.8 µM (inconclusive)

Cc1ccsc1/C=N/c1ccc(C(N)=O)cc1
IC50 (SUMO E1/E2): > 100 µM (inactive)

CC(=O)N(C(C)=O)N1C(=O)/C(=C/c2ccc(Cl)cc2)SC1=S
AC50 [25]: 1.34 µM (active) | CC50 (Vero): > 40 µM (active) | IC50 (Genome polyprotein): 23.5 µM (active)

OCCN1CCOCCOCCN(CCO)CCN(CCO)CC1
AC50 (Cytochrome P450 3A4): inconclusive

CC(C)Oc1cccc(C(=O)C2CCCN(Cc3cccn3-c3ccccn3)C2)c1 (configuration not stated)
IC50 [18]: 3.3 µM (active) | IC50 [23]: 7.53 µM (active)

— ChEMBL document CHEMBL1201862, “PubChem BioAssay data set” (2004)
